Experimental findings from US9750714B2, “Pharmaceutical use of 3, 4-bis-benzylsulfonylbutyronitrile” (Olatec Therapeutics LLC, priority 2013, dated 2017) are described below.

The structures appear in SMILES notation.

For experiment [1], the system named is arachidonic acid-induced ear swelling. Description: topical arachidonic acid-induced ear swelling model in mice. The format is in vivo. On the procedure: The test compound, indomethacin (positive control), and vehicle were evaluated for anti-inflammatory activity in a topical arachidonic acid-induced ear swelling model in mice. Male ICR mice weighing 22±2 g were used and randomly divided; the test compound and vehicle control had 10 mice, and indomethacin had 5 mice. Arachidonic Acid (0.5 mg in 20 μl of acetone:ethanol/1:1) was applied topically to the anterior and posterior surfaces of the right ear of each mouse. Test substances and vehicle, as listed in Table 2 were similarly applied 30 min before and 15 min after arachidonic acid application. The thickness of the right ear and the left ear was measured and the difference calculated as an indication of the inflammation in the right ear. Ear swelling was measured by a Dyer model micrometer gauge at 60 and 90 minutes after arachidonic acid application as an index of inflammation. Percent inhibition was calculated according to the formula: Ic−It/Ic×100, where Ic and It refers to increase of ear thickness (mm) in control and treated mice, respectively. ANOVA and Dunnett's test were employed to ascertain significant difference between vehicle control and treated groups. Significance is set at P<0.05 level.

Experiment [2] concerns tail flick response to heat stimulus. Nature of the experiment: tail flick test in mice (49° C. water bath). The experiment is classed as in vivo. On the procedure:
The tail flick test is a test of the pain response in animals. The tail flick test is used in basic pain research and to measure the effectiveness of analgesics, by observing the tail flick reaction to heat in an animal. This test assesses the nociceptive response to a local pain stimulus, and the ability of a drug to inhibit this response.
Vehicle control (DMSO) and test compound 3, 4-bis-benzylsulfonylbutanenitrile in DMSO were administered by oral gavage to mice with a volume of 5 mL/kg, immediately prior to testing, at time zero. The test compound was administered at a dosage of 500 mg/kg in DMSO. Positive control morphine in water was administered at time zero by subcutaneous injection at 8 mg/kg to mice. […] The purpose of morphine is […] to serve as a comparison with the test compound. Each group had 10 mice.
The response of mice to heat stimulus was evaluated by measuring the time of tail-flick or tail-flick latency from 49° C. water bath. Briefly, the animal was held with its tail hanging down. Approximately 2 inches of the tail was immersed in a beaker of water at 38±1° C. for about 30 seconds, and this was done twice to acclimate the animal to the procedure.
Subsequently, approximately 2 inches of the tail was immersed in a beaker of water at 49±1° C., at which point a timer was started.
Tail flick measurements were made at 0, 30, 60, and 120 minutes post administration of the dosage of test compound, vehicle, or morphine. An ANOVA was done, and if p<0.05, a Dunnett's t test was employed to calculate significant difference between vehicle control and test compound treated groups. A pairwise Student's t test was used to calculate differences between the morphine group and the control group. […] Analysis with p-values<0.05 is considered significant.

With `COc1ccc2c(c1)c(CC(=O)O)c(C)n2C(=O)c1ccc(Cl)cc1` [Indomethacin, reference compound], the “% Inhibition of ear swelling” value in experiment [1] (topical, applied 30 min before and 15 min after arachidonic acid, measured at 90 minutes, relative to vehicle, indomethacin 14 mM (0.1 mg/20 μL), test compound 375 mM (2.8 mg/20 μL)) was determined as 58%.

Regarding `CN1CC[C@]23c4c5ccc(O)c4O[C@H]2[C@@H](O)C=C[C@H]3[C@H]1C5` [morphine], the “tail flick latency compared with vehicle-treated mice” value is reported as “statistically significant” in experiment [2] (morphine 8 mg/kg subcutaneous, 30 minutes post dosing); “statistically significant” in experiment [2] (morphine 8 mg/kg subcutaneous, 60 minutes post dosing); “not” in experiment [2] (morphine 8 mg/kg subcutaneous, 120 minutes post dosing).

Regarding `N#CCC(CS(=O)(=O)Cc1ccccc1)S(=O)(=O)Cc1ccccc1` (stereo not drawn) [3,4-bis-benzylsulfonylbutanenitrile, 3,4-bis-benzylsulfonylbutanenitrile], the “tail flick latency compared with vehicle-treated mice” value in experiment [2] (test compound 500 mg/kg in DMSO, oral, 120 minutes post dosing) was “statistically significant”. The “anti-inflammatory activity in the mouse ear swelling model (in words)” value in experiment [1] (applied topically, inflammation induced by arachidonic acid) is given as “anti-inflammatory”.
